Where two headings read alike, the source gives them in different places.
Assays:
Delta Opioid Receptor = target: T1, Delta Opioid Receptor (Rattus norvegicus, UniProt P33533); test: Rat brain delta opioid receptor binding assay ([3H]DPDPE or [3H]naltrindole)
T1 construct: the forebrains were homogenized in Tris buffer in a Teflon®-glass homogenizer; from tissue; host or cells: forebrain of male Wistar rats, particulate membrane preparation

Mu Opioid Receptor = target: T2, Mu Opioid Receptor (Rattus norvegicus, UniProt P33535); test: Rat brain mu opioid receptor binding assay ([3H]DAMGO)
T2 construct: the forebrains were homogenized in Tris buffer in a Teflon®-glass homogenizer; from tissue; host or cells: forebrain of male Wistar rats, particulate membrane preparation

δ-opioid receptor = δ-opioid receptor (Mus musculus, UniProt P32300); test: [35S]GTPγS δ-opioid receptor functional assay (EC50, relative efficacy, % inhibition); format: biochemical; set-up: NG108-15 cell membranes were purchased from Applied Cell Sciences (Rockville, Md.); conditions: for inhibition at 10 µM: read-out: GTPγS δ-opioid receptor % Inh @10 μM
[1] = rat forebrain membranes, ~4 nM [3H]DPDPE, read-out: δ-binding (DPDPE ligand) Ki
[2] = rat forebrain membranes, ~0.8 nM [3H]DAMGO, read-out: μ-binding Ki
[3] = rat forebrain membranes, 0.25 nM [3H]naltrindole, read-out: δ-binding (Naltrindole ligand) Ki

δ-opioid receptor, sequence (P32300 whole entry): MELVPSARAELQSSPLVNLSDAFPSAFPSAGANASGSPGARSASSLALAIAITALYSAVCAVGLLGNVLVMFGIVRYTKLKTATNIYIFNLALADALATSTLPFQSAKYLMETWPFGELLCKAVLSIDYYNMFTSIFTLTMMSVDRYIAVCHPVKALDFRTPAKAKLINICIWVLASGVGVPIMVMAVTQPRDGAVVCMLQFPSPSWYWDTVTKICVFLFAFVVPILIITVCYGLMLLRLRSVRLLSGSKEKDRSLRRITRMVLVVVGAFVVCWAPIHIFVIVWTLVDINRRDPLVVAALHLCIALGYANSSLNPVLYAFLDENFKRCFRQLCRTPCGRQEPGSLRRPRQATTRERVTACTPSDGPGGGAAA
T1 sequence (P33533 whole entry): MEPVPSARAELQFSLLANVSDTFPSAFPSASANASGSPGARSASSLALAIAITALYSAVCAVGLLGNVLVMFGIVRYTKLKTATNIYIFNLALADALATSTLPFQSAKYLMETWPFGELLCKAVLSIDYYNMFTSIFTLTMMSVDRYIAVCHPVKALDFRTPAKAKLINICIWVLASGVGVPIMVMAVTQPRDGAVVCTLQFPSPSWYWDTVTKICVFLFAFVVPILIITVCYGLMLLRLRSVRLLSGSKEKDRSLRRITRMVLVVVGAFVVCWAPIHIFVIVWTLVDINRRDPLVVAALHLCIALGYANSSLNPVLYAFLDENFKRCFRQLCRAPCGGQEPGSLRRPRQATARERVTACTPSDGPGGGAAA
T2 sequence (P33535 whole entry): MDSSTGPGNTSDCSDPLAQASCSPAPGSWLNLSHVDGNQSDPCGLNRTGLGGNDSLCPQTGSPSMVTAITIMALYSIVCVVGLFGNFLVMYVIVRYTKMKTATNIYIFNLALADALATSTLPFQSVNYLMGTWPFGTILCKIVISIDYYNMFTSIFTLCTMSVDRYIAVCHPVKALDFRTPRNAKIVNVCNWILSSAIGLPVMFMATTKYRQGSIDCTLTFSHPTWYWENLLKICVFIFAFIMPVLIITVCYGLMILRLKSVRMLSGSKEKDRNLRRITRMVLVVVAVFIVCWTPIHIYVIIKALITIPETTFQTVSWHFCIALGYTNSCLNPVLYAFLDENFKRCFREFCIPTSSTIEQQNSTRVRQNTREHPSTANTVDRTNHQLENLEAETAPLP

Row | SMILES | Ki (Mu Opioid Receptor; [2]) [nM] | Ki (Delta Opioid Receptor; [3]) [nM] | further results
1 | COc1ccc(Oc2ccc(NC3CCCNC3)c(Oc3ccc(OC)cc3)c2)cc1 (racemic) [Cpd 54] |  |  | Ki (Delta Opioid Receptor; [1]): 492 nM; Ki (Mu Opioid Receptor): 9700 nM
2 | COc1ccc(Oc2ccc(NCC3CCCNC3)c(Oc3ccc(OC)cc3)c2)cc1 (racemic) [Cpd 61] | > 10000 |  | EC50 (δ-opioid receptor): 4070 nM; inhibition at 10 µM (δ-opioid receptor): 16.1%; Ki (Delta Opioid Receptor; [1]): 111 nM
3 | CCN(CC)C(=O)CCc1ccc(NC[C@@H]2CCCN2)c(Oc2ccc(OC)cc2)c1 [Cpd 2, N,N-Diethyl-3-[3-(4-methoxyphenoxy)-4-{[(2S)-pyrrolidin-2-ylmethyl]amino}phenyl]propanamide] | > 100000 | 26.4 | GTPγS δ-opioid receptor Rel Efficacy (δ-opioid receptor): 0.8333; inhibition at 10 µM (δ-opioid receptor): 22.8%; EC50 (δ-opioid receptor; read-out: GTPγS δ-opioid receptor EC50): 39.1 nM
4 | COc1ccc(CCc2ccc(NC[C@@H]3CCCN3)c(Oc3ccc(OC)cc3)c2)cc1 [Cpd 3, (S)-{2-(4-Methoxy-phenoxy)-4-[2-(4-methoxy-phenyl)-ethyl]-phenyl}-pyrrolidin-2-ylmethyl-amine] | > 10000 | 120 | 
5 | COc1ccc(Oc2cc(CCc3cccc(OC)c3)ccc2NC[C@@H]2CCCN2)cc1 [Cpd 4] |  | 210 | 
6 | COc1ccc(Oc2cc(CCc3ccccc3)ccc2NC[C@@H]2CCCN2)cc1 [Cpd 5] |  | 239 | 
7 | COc1ccc(Oc2cc(CCc3ccc(F)cc3)ccc2NC[C@@H]2CCCN2)cc1 [Cpd 6] |  | 684 | 
8 | COc1ccc(Oc2cc(CCc3cccc(F)c3)ccc2NC[C@@H]2CCCN2)cc1 [Cpd 7] |  | 229 | 
9 | CCN(CC)C(=O)c1cccc(CCc2ccc(NC[C@@H]3CCCN3)c(Oc3ccc(OC)cc3)c2)c1 [Cpd 8, (S)-N,N-Diethyl-3-(2-{3-(4-methoxy-phenoxy)-4-[(pyrrolidin-2-ylmethyl)-amino]-phenyl}-ethyl)-benzamide] |  | 127 | Ki (Mu Opioid Receptor): 9000 nM
10 | CCN(CC)C(=O)c1ccc(NC[C@@H]2CCCN2)c(Oc2ccccc2)c1 [Cpd 9, (S)-N,N-Diethyl-3-phenoxy-4-[(pyrrolidin-2-ylmethyl)-amino]-benzamide] | > 10000 | 1020 | 
11 | CCN(CC)C(=O)c1ccc(NC[C@@H]2CCCN2)c(Oc2ccccc2OC)c1 [Cpd 11] |  |  | EC50 (δ-opioid receptor): 319 nM; Ki (Delta Opioid Receptor; [1]): 105 nM
12 | N#Cc1ccc(Oc2cc(-c3ccccc3)ccc2NC[C@@H]2CCCN2)cc1 [Cpd 12, (S)-4-{4-[(Pyrrolidin-2-ylmethyl)-amino]-biphenyl-3-yloxy}-benzonitrile] | > 10000 | 996 | 
13 | N#Cc1cccc(Oc2cc(-c3ccccc3)ccc2NC[C@@H]2CCCN2)c1 [Cpd 13] |  | 402 | 
14 | c1ccc(Oc2cc(-c3ccccc3)ccc2NC[C@@H]2CCCN2)cc1 [Cpd 14] |  | 113 | 
15 | COc1cccc(Oc2cc(-c3ccccc3)ccc2NC[C@@H]2CCCN2)c1 [Cpd 15] |  | 289 | 
16 | Fc1ccc(Oc2cc(-c3ccccc3)ccc2NC[C@@H]2CCCN2)cc1 [Cpd 16] |  | 419 | 
17 | FC(F)(F)Oc1ccc(Oc2cc(-c3ccccc3)ccc2NC[C@@H]2CCCN2)cc1 [Cpd 17] |  | 1470 | 
18 | Clc1cccc(Cl)c1Oc1cc(-c2ccccc2)ccc1NC[C@@H]1CCCN1 [Cpd 18] |  | 108 | EC50 (δ-opioid receptor): 1040 nM; GTPγS δ-opioid receptor Rel Efficacy (δ-opioid receptor): 0.763; inhibition at 10 µM (δ-opioid receptor): 23.4%
19 | CNCCNc1ccc(-c2ccccc2)cc1Oc1ccc(OC)cc1 [Cpd 19] | > 10000 | 192 | 
20 | COC(=O)c1ccc(Oc2cc(-c3ccccc3)ccc2NC[C@@H]2CCCN2)cc1 [Cpd 20] |  | 779 | 
21 | COC(=O)c1cccc(Oc2cc(-c3ccccc3)ccc2NC[C@@H]2CCCN2)c1 [Cpd 21] |  | 887 | 
22 | Clc1ccc(Oc2cc(-c3ccccc3)ccc2NC[C@@H]2CCCN2)c(Cl)c1 [Cpd 22] |  | 698 | 
23 | COc1ccc(Oc2cc(-c3ccccc3)ccc2NC2CCNCC2)cc1 [Cpd 23] | > 10000 | 461 | 
24 | COc1ccc(Oc2cc(-c3cncc(OC)c3)ccc2NC[C@@H]2C[C@@H](F)CN2)cc1 [Cpd 27] |  | 1000 | 
25 | COc1ccc(Oc2cc(-c3cncc(C)c3)ccc2NC[C@@H]2C[C@@H](F)CN2)cc1 [Cpd 28] |  |  | EC50 (δ-opioid receptor): 165 nM; GTPγS δ-opioid receptor Rel Efficacy (δ-opioid receptor): 0.8756; Ki (Delta Opioid Receptor): 6.81 nM; Ki (Mu Opioid Receptor): 4670 nM
26 | NC(=O)c1ccc(Oc2cc(-c3ccccc3)ccc2NC[C@@H]2CCCN2)cc1 [Cpd 29, (S)-4-{4-[(Pyrrolidin-2-ylmethyl)-amino]-biphenyl-3-yloxy}-benzamide] | > 10000 | 147 | 

Reference: US20110269759A1, “PYRIMIDINE COMPOUNDS AS DELTA OPIOID RECEPTOR MODULATORS” (priority 2009, published 2011)
